This test deals with T1, human MCH receptor 1 (MCHR1) (Homo sapiens, UniProt Q99705).
T1 construct: expressed in transfected cells; host or cells: CHO cell clone 57 (membrane fraction)
Kind of test: human MCH receptor 1 (MCHR1) competitive binding assay with [125I]-MCH(4-19). Conditions: test compound 0.1 μM, human MCHR1-expressing CHO cell membrane fraction; for inhibition at 0.1 µM: read-out: Binding inhibition rate % (0.1 μM). How it is done:
Determination of human MCH receptor 1 (MCHR1) competitive inhibitory activity of test compound using binding assay
1. Preparation of Membrane Fraction
Using human MCHR1 (=SLC-1 receptor)-expressing CHO cell clone 57 described in WO01/82925, MCHR1-expressing CHO cell membrane fractions were prepared by the following method.
In phosphate buffered saline (pH 7.4) supplemented with 5 mM EDTA (ethylenediaminetetraacetic acid) were respectively suspended human MCHR1-expressing CHO cells (1×10^8 cells) and centrifuged. Homogenate buffer (10 mL, 10 mM NaHCO3, 5 mM EDTA, pH 7.5, 0.5 mM PMSF (phenylmethylsulfonyl fluoride), 20 mg/L leupeptin, 4 mg/L E-64, 1 mg/L pepstatin A) was added to the pellets of the cells and, using Polytron Homogenizer, the mixture was homogenated. The supernatant obtained after centrifugation at 400×g for 10 min was further centrifuged at 100,000×g for 1 hr to give precipitate of the membrane fraction. The precipitate were suspended in 2 mL of assay buffer [20 mM Tris-HCl (pH 7.5), 5 mM EDTA, 0.5 mM PMSF, 20 mg/L leupeptin, 4 mg/L E-64, 1 mg/L pepstatin A]. The membrane fractions were suspended in assay buffer to a protein concentration of 2 mg/mL, and after dispensing, preserved at −80° C. and used upon thawing each time when in use.
The MCHR1 ligand binding inhibitory activity of the test compound was determined as follows.
An MCHR1-expressing CHO cell membrane fraction (173 μL) diluted with an assay buffer was dispensed to a 96 well polypropylene plate (3363, Corning). DMSO solution (2 μL), 33 μM cold MCH(1-19) diluted with DMSO solution (2 μL), or a test compound solution diluted with DMSO solution to various concentrations (2 μL) was added, and lastly, [^125I]-MCH (4-19) diluted with assay buffer (hereinafter, sometimes to be referred to as “hot MCH”, 25 μL) was added to each well. The mixture was reacted with stirring at room temperature for 1 hr, and the plate was set on FilterMate Harvester (PerkinElmer). Using a treating glass filter plate (GF/C, PerkinElmer) with polyethyleneimine, which had been previously set, the plate was suction-filtered and washed three times with washing buffer (50 mM Tris-HCl buffer pH 7.5). The glass filter plate was dried, MicroScinti0 (PerkinElmer) was added at 25 μL/well, and the resulting radioactivity was measured by TopCount liquid scintillation counter (PerkinElmer). The binding inhibition rate of the test compound was calculated by the following formula. Binding inhibition (%)=100−(radioactivity upon addition of test compound and hot MCH−radioactivity upon addition of cold MCH and hot MCH solution)/(radioactivity upon addition of DMSO solution and hot MCH−radioactivity upon addition of cold MCH and hot MCH solution)×100
The binding inhibition rates (%) of test compounds (0.1 μM) as measured using human MCHR1-expressing CHO cell are shown in Table 2.

The values below come from US9365540B2, “Benzimidazole derivatives as MCH receptor antagonists” (Takeda Pharmaceutical Company Limited, priority 2012, dated 2016).

The structures appear in SMILES notation.

T1 sequence (Q99705 whole entry): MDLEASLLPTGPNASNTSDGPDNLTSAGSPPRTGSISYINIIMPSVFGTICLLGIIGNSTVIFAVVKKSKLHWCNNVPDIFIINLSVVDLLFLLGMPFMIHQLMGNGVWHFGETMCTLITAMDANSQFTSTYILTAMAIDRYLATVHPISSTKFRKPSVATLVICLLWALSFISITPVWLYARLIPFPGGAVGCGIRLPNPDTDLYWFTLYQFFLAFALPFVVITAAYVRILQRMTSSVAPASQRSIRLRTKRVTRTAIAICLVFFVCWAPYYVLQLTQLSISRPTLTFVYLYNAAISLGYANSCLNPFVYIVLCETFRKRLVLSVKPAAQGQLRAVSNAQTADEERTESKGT

As usually defined, the inhibition is the relative decrease from the control value, in per cent. Regarding `CC1CC1c1nc2ccc(-n3ccc(OCc4ccc(Cl)cc4)cc3=O)cc2n1C` (stereo not shown) [Example 90, 4-((4-Chlorobenzyl)oxy)-1-(1-methyl-2-(2-methylcyclopropyl)-1H-benzimidazol-6-yl)pyridin-2(1H)-one], the inhibition at 0.1 µM stood at 80%. On the same count and under the same terms, then `Cn1c(C2CCC2)nc2ccc(-n3ccc(OCc4ccc(Cl)cc4)cc3=O)cc21` [Example 109, 4-((4-Chlorobenzyl)oxy)-1-(2-cyclobutyl-1-methyl-1H-benzimidazol-6-yl)pyridin-2(1H)-one], with 50%; and `Cn1c(C2CC2)nc2ccc(-n3ccc(OCc4cc(F)cc(F)c4)cc3=O)cc21` [Example 119, 1-(2-Cyclopropyl-1-methyl-1H-benzimidazol-6-yl)-4-((3,5-difluorobenzyl)oxy)pyridin-2(1H)-one], with 56%. On the same count and under the same terms, then `CCCc1nc2ccc(-n3ccc(OCc4ccccc4)cc3=O)cc2n1C` [Example 126, 4-(Benzyloxy)-1-(1-methyl-2-propyl-1H-benzimidazol-6-yl)pyridin-2(1H)-one], with 65%; and `Cc1c(C2CC2)nc2ccc(-n3ccc(OCc4ccc(Cl)s4)cc3=O)cn12` [Example 139, 4-((5-Chloro-2-thienyl)methoxy)-1-(2-cyclopropyl-3-methylimidazo[1,2-a]pyridin-6-yl)pyridin-2(1H)-one], with 88%. The same measure, in the same setting: with `Cc1ccc(COc2ccn(-c3ccc4nc(C5CC5)n(C)c4c3)c(=O)c2)cc1` [Example 142, 1-(2-Cyclopropyl-1-methyl-1H-benzimidazol-6-yl)-4-((4-methylbenzyl)oxy)pyridin-2(1H)-one] the figure was 69%. On to `Cc1ocnc1-c1nc2ccc(-n3ccc(OCc4ccc(F)cc4)cc3=O)cc2n1C` [Example 145, 4-((4-Fluorobenzyl)oxy)-1-(1-methyl-2-(5-methyl-1,3-oxazol-4-yl)-1H-benzimidazol-6-yl)pyridin-2(1H)-one], for which the inhibition at 0.1 µM turned out to be 52%. Still for that read-out and setting: then `Cc1c(C2CC2)nc2ccc(-n3ccc(OCc4ccc(F)c(F)c4)cc3=O)cn12` [Example 146, 1-(2-Cyclopropyl-3-methylimidazo[1,2-a]pyridin-6-yl)-4-((3,4-difluorobenzyl)oxy)pyridin-2(1H)-one], with 77%; and `Cc1c(C2CC2)nc2ccc(-n3ccc(OCc4ccc(Cl)c(F)c4)cc3=O)cn12` [Example 151, 4-((4-Chloro-3-fluorobenzyl)oxy)-1-(2-cyclopropyl-3-methylimidazo[1,2-a]pyridin-6-yl)pyridin-2(1H)-one], with 73%.

On to `Cn1c(C2CC2C(C)(C)O)nc2ccc(-n3ccc(OCc4ccc(Cl)cc4)cc3=O)cc21` (stereo not drawn) [Example 153, 4-((4-Chlorobenzyl)oxy)-1-(2-((1R*,2S*)-2-(2-hydroxypropan-2-yl)cyclopropyl)-1-methyl-1H-benzimidazol-6-yl)pyridin-2(1H)-one], for which the inhibition at 0.1 µM was determined as 94%. As to `Cn1c(C2CC2C(C)(C)O)nc2ccc(-n3ccc(OCc4ccc(Cl)cc4)cc3=O)cc21` (stereo not drawn) [Example 154, 4-((4-Chlorobenzyl)oxy)-1-(2-((1R*,2S*)-2-(2-hydroxypropan-2-yl)cyclopropyl)-1-methyl-1H-benzimidazol-6-yl)pyridin-2(1H)-one], the “Binding inhibition rate % (0.1 μM)” value worked out at 91%. For the compound `Cc1nc2ccc(-n3ccc(OCc4ccc(F)cc4)cc3=O)cn2c1C` [Example 162, 1-(2,3-Dimethylimidazo[1,2-a]pyridin-6-yl)-4-((4-fluorobenzyl)oxy)pyridin-2(1H)-one], the inhibition at 0.1 µM stood at 57%. Still for that read-out and setting: with `Cc1nc2ccc(-n3ccc(OCc4ccccc4)cc3=O)cn2c1C` [Example 163, 4-(Benzyloxy)-1-(2,3-dimethylimidazo[1,2-a]pyridin-6-yl)pyridin-2(1H)-one] the figure was 49%. On to `Cc1nc2ccc(-n3ccc(OCc4csc(Cl)c4)cc3=O)cn2c1C` [Example 165, 4-((5-Chlorothiophen-3-yl)methoxy)-1-(2,3-dimethylimidazo[1,2-a]pyridin-6-yl)pyridin-2(1H)-one], for which the inhibition at 0.1 µM turned out to be 81%.

On to `Cc1nc2ccc(-n3ccc(OCc4ccc(Cl)s4)cc3=O)cn2c1C` [Example 166, 4-((5-Chlorothiophen-2-yl)methoxy)-1-(2,3-dimethylimidazo[1,2-a]pyridin-6-yl)pyridin-2(1H)-one], for which the inhibition at 0.1 µM came out at 64%.

Consider `CCc1nc2ccc(-n3ccc(OCc4csc(Cl)c4)cc3=O)cn2c1C` [Example 172, 4-((5-Chlorothiophen-3-yl)methoxy)-1-(2-ethyl-3-methylimidazo[1,2-a]pyridin-6-yl)pyridin-2(1H)-one], for which the inhibition at 0.1 µM turned out to be 72%. The same measure, in the same setting: with `Cc1c(C2CC2C#N)nc2ccc(-n3ccc(OCc4ccc(Cl)cc4)cc3=O)cn12` (stereo not shown) [Example 174, 2-(6-(4-((4-Chlorobenzyl)oxy)-2-oxopyridin-1(2H)-yl)-3-methylimidazo[1,2-a]pyridin-2-yl)cyclopropanecarbonitrile] the figure was 45%. The same measure, in the same setting: then `Cc1c(C2CC2)nc2ccc(-n3ccc(OCc4csc(C(F)F)c4)cc3=O)cn12` [Example 184, 1-(2-Cyclopropyl-3-methylimidazo[1,2-a]pyridin-6-yl)-4-((5-(difluoromethyl)-3-thienyl)methoxy)pyridin-2 (1H)-one], with 82%; and `CCc1ncoc1-c1nc2ccc(-n3ccc(OCc4ccc(F)cc4)cc3=O)cc2n1C` [Example 201, 1-(2-(4-Ethyl-1,3-oxazol-5-yl)-1-methyl-1H-benzimidazol-6-yl)-4-((4-fluorobenzyl)oxy)pyridin-2(1H)-one], with 84%. On the same count and under the same terms, with `Cn1c(C2CC2C(C)(C)F)nc2ccc(-n3ccc(OCc4ccc(Cl)cc4)cc3=O)cc21` (stereo not drawn) [Example 207, 4-((4-Chlorobenzyl)oxy)-1-(2-((1R*,2S*)-2-(2-fluoropropan-2-yl)cyclopropyl)-1-methyl-1H-benzimidazol-6-yl)pyridin-2(1H)-one] the figure was 85%; with `CCC(=O)c1nc2ccc(-n3ccc(OCc4ccc(Cl)cc4)cc3=O)cc2n1C` [Example 208, 4-((4-Chlorobenzyl)oxy)-1-(1-methyl-2-propanoyl-1H-benzimidazol-6-yl)pyridin-2(1H)-one], 39%. For the compound `Cn1c(C2CC2C(C)(C)F)nc2ccc(-n3ccc(OCc4ccc(Cl)cc4)cc3=O)cc21` (stereo not drawn) [Example 209, 4-((4-Chlorobenzyl)oxy)-1-(2-((1R*,2S*)-2-(2-fluoropropan-2-yl)cyclopropyl)-1-methyl-1H-benzimidazol-6-yl)pyridin-2(1H)-one], the “Binding inhibition rate % (0.1 μM)” value turned out to be 89%. For `CCc1nc2ccc(-n3ccc(OCc4ccccc4)cc3=O)cc2n1C` [Example 210, 4-(Benzyloxy)-1-(2-ethyl-1-methyl-1H-benzimidazol-6-yl)pyridin-2(1H)-one], the inhibition at 0.1 µM stood at 51%.

As to `CCc1nc2ccc(-n3ccc(OCc4ccc(Cl)s4)cc3=O)cc2n1C` [Example 211, 4-((5-Chlorothiophen-2-yl)methoxy)-1-(2-ethyl-1-methyl-1H-benzimidazol-6-yl)pyridin-2(1H)-one], the inhibition at 0.1 µM worked out at 76%. Still for that read-out and setting: with `Cc1cc(COc2ccn(-c3ccc4nc(C5CC5)n(C)c4c3)c(=O)c2)cs1` [Example 213, 1-(2-Cyclopropyl-1-methyl-1H-benzimidazol-6-yl)-4-((5-methyl-3-thienyl)methoxy)pyridin-2(1H)-one] the figure was 79%.
